# Measured values published in BindingDB's records for doi:10.1021/jm00083a002 (Ici Pharmaceuticals Group, 1992).
# Experiments:
# [1] = target: Prolyl 4-hydroxylase (Gallus gallus); experiment: ChEBML_157453
# Text: Inhibition of prolyl 4-hydroxylase activity by an indirect assay
# [2] = target: prolyl 4-hydroxylase (Gallus gallus); experiment: Compound was evaluated for inhibition of Prolyl 4-hydroxylase activity in cultured embryonic chick tendon cells
Compound,IC50 [1],IC50 [2]
O=C(Nc1cccc(Cl)c1)c1ccc(C(=O)O)nc1,32.2 µM,–
O=C(Nc1ccccc1Cl)c1ccc(C(=O)O)nc1,16.3 µM,–
CN(C)c1ccc(C(=O)Nc2ccc(C(=O)O)nc2)cc1,11.3 µM,–
COc1cc(NC(=O)c2ccc(C(=O)O)nc2)cc(OC)c1OC,26.5 µM,–
O=C(Nc1ccc(C(=O)O)nc1)c1ccc(Cl)cc1,22.5 µM,–
CCOc1ccc(NC(=O)c2ccc(C(=O)O)nc2)cc1,5 µM,–
CCOc1ccc(C(=O)Nc2ccc(C(=O)O)nc2)cc1,11.2 µM,–
O=C(Nc1ccccc1)c1ccc(C(=O)O)nc1,26.5 µM,–
CN(C)c1ccc(NC(=O)c2ccc(C(=O)O)nc2)cc1,4.1 µM,–
O=C(Nc1ccc(Cl)cc1)c1ccc(C(=O)O)nc1,17.4 µM,–
COc1ccccc1NC(=O)c1ccc(C(=O)O)nc1,14.8 µM,–
O=C(O)c1ccc(NC(=O)c2ccccc2F)cn1,33.8 µM,–
O=C(O)c1ccc(/C=C/c2ccc(Cl)cc2)cn1,150 µM,–
O=C(O)c1ccc(NCc2ccc(F)cc2)cn1,31 µM,80 µM
O=C(Nc1ccc(C(=O)O)nc1)c1ccccc1,25.6 µM,–
CCOc1ccccc1NC(=O)c1ccc(C(=O)O)nc1,32.9 µM,–
O=C(Nc1ccc([N+](=O)[O-])cc1)c1ccc(C(=O)O)nc1,44 µM,–
COc1ccc(NC(=O)c2ccc(C(=O)O)nc2)c(OC)c1,16.6 µM,–
O=C(Nc1ccc(F)cc1)c1ccc(C(=O)O)nc1,16.1 µM,–
O=C(O)c1ccc(OCc2ccccc2)cn1,39 µM,–
O=C(Nc1ccc(C(=O)O)nc1)c1ccc(F)cc1,51.2 µM,–
Cc1ccc(NC(=O)c2ccc(C(=O)O)nc2)cc1,8.3 µM,–
Cc1ccc(C(=O)Nc2ccc(C(=O)O)nc2)cc1,16.5 µM,–
COc1ccc(NC(=O)c2ccc(C(=O)O)nc2)cc1,21.1 µM,–
O=C(Nc1ccccc1F)c1ccc(C(=O)O)nc1,11 µM,–
